Experimental data from the supplement of paper PMC10307832.

Columns and labels:
Test in all cases: relative viability (nuclei count vs DMSO), 5 days (fraction); higher = more cells survive
Idelalisib + Foretinib = compound: CC[C@H](Nc1ncnc2[nH]cnc12)c1nc2cccc(F)c2c(=O)n1-c1ccccc1 [Idelalisib] + COc1cc2c(Oc3ccc(NC(=O)C4(C(=O)Nc5ccc(F)cc5)CC4)cc3F)ccnc2cc1OCCCN1CCOCC1 [Foretinib] (partner 0.25 µM)
Outline: (§1)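 Five library-drug doses in √10 steps were combined with a fixed anchor-drug dose, or a single drug was given alone, by pin tool to lung cancer cell lines in 1536-well plates the day after seeding. Nuclei were stained and counted after 5 days. Relative viability is the nuclei count in treated wells over that in vehicle wells, taken as the median of duplicate plates.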

Idelalisib + Phenformin = compound: CC[C@H](Nc1ncnc2[nH]cnc12)c1nc2cccc(F)c2c(=O)n1-c1ccccc1 [Idelalisib] + N=C(N)NC(=N)NCCc1ccccc1 [Phenformin] (partner 250 µM)
Outline: as §1

Pemetrexed + Phenformin = compound: Nc1nc2[nH]cc(CCc3ccc(C(=O)N[C@@H](CCC(=O)O)C(=O)O)cc3)c2c(=O)[nH]1 [Pemetrexed] + N=C(N)NC(=N)NCCc1ccccc1 [Phenformin] (partner 250 µM)
Outline: as §1

Pemetrexed + Alpelisib = compound: Nc1nc2[nH]cc(CCc3ccc(C(=O)N[C@@H](CCC(=O)O)C(=O)O)cc3)c2c(=O)[nH]1 [Pemetrexed] + Cc1nc(NC(=O)N2CCC[C@H]2C(N)=O)sc1-c1ccnc(C(C)(C)C(F)(F)F)c1 [Alpelisib] (partner 2 µM)
Outline: as §1

Cell Line	relative viability (Idelalisib + Foretinib; first compound 0.04 µM)	relative viability (Idelalisib + Foretinib; first compound 0.1265 µM)	relative viability (Idelalisib + Foretinib; first compound 0.4 µM)	relative viability (Idelalisib + Foretinib; first compound 1.265 µM)	relative viability (Idelalisib + Foretinib; first compound 4 µM)	relative viability (Idelalisib + Phenformin; first compound 0.04 µM)	relative viability (Idelalisib + Phenformin; first compound 0.1265 µM)	relative viability (Idelalisib + Phenformin; first compound 0.4 µM)	relative viability (Idelalisib + Phenformin; first compound 1.265 µM)	relative viability (Idelalisib + Phenformin; first compound 4 µM)	relative viability (Pemetrexed + Phenformin; first compound 0.002 µM)	relative viability (Pemetrexed + Phenformin; first compound 0.006325 µM)	relative viability (Pemetrexed + Phenformin; first compound 0.02 µM)	relative viability (Pemetrexed + Phenformin; first compound 0.06325 µM)	relative viability (Pemetrexed + Phenformin; first compound 0.2 µM)	relative viability (Pemetrexed + Alpelisib; first compound 0.002 µM)	relative viability (Pemetrexed + Alpelisib; first compound 0.006325 µM)	relative viability (Pemetrexed + Alpelisib; first compound 0.02 µM)	relative viability (Pemetrexed + Alpelisib; first compound 0.06325 µM)	relative viability (Pemetrexed + Alpelisib; first compound 0.2 µM)
SW 900	0.796	1.14	0.869	0.766	0.563	0.683	0.458	0.634	0.614	0.395	0.759	0.578	0.763	0.548	0.477					
PC-3 [JPC-3]	1.01	0.961	1.01	1.06	0.957	0.454	0.484	0.477	0.451	0.42	0.476	0.517	0.537	0.486	0.478	0.948	1.04	1.04	1.03	0.972
NCI-H1703	0.344	0.356	0.311	0.399	0.303											0.319	0.38	0.333	0.338	0.379
EPLC-272H	0.793	0.667	0.662	0.635	0.517	0.302	0.291	0.308	0.257	0.265	0.242	0.315	0.333	0.292	0.267	0.876	0.938	1.11	0.962	0.847
NCI-H1792						0.335	0.182		0.225	0.208	0.311	0.368	0.297	0.252	0.272	0.685	0.731	0.806	0.788	0.634
NCI-H2085	0.971	0.913	0.688	0.777	0.556	0.788	0.833	0.558	0.735	0.471	0.664	0.685	0.735	0.808	0.779	0.91	0.952	1.07	0.951	0.952
LK-2	1.75	1.16		1.29	0.836	0.477	0.407		0.536	0.384	0.51	0.475	0.883	0.376	0.267		1.07	1.12	0.962	0.773
NCI-H1395	1.02	0.959	0.976	0.963	0.707	0.476	0.421	0.423	0.445	0.439	0.4	0.472	0.521	0.411	0.447	0.964	0.916	1.14	1.14	1.02
ABC-1	1.09	1.06	0.853	0.963	0.977	0.243	0.254	0.231	0.267	0.217	0.283	0.24	0.26	0.283	0.249	1.13	0.937	1.28	1.03	0.87
RERF-LC-KJ	0.879	0.953	0.809	0.871	0.768	0.442	0.438	0.419	0.44	0.373	0.435	0.439	0.43	0.411	0.349	1.12	0.774	0.84	0.868	0.538
LU99A	0.939	0.847	0.775	0.79	0.775	1.06	0.836	0.737	0.988	1.01	0.784	0.93	0.848	0.779	0.786	0.517	0.556	0.492	0.498	0.346
NCI-H650	1.05	1.05	0.948	1.05	1	0.519	0.429	0.446	0.487	0.457	0.406	0.468	0.457	0.428	0.469	1.17	0.999	1.11	0.956	1.09
NCI-H2347	0.845	0.701	0.818	1.12	0.664	0.395	0.386	0.372	0.284	0.313	0.203	0.369	0.484	0.412	0.387	0.858	0.893	1.07	0.869	0.633
HARA	1.24	0.934	0.776	1.04	0.746	0.525	0.52	0.432	0.45	0.416	0.402	0.447	0.508	0.297	0.137	0.822	0.814	0.862	0.799	0.275
NCI-H2228	0.874	0.835	0.614	0.87	0.788	0.348	0.371	0.162	0.221	0.235	0.308		0.268	0.2	0.184	0.833	0.721	0.752	0.474	0.319
EKVX	0.826	0.984	0.773	0.843	0.808	0.244	0.258	0.213	0.225	0.234	0.246	0.284	0.26	0.254	0.206	0.827	0.89	0.943	0.827	0.615
HCC-827	1.1	0.971	1.04	1.05	0.915	0.424	0.393	0.37	0.352	0.323	0.366	0.417	0.436	0.4	0.37	0.891	0.977	0.996	1.07	0.726
